# Patent US5801149A, “Inhibition of signal transduction molecules” (Joslin D-abetes Center, Inc., priority 1995, dated 1998)
# Non-standard residues stand in square brackets, D forms with d. Residues, ends and D or L forms follow the SMILES beside them. No end group written: not given here. Pmp = N[C@@H](Cc1ccc(CP(=O)(O)O)cc1)C(=O)O; pY = N[C@@H](Cc1ccc(OP(=O)(O)O)cc1)C(=O)O
# Tests used:
# [1] = biological target: T1, p85 SH2 domains (SH2/GST fusion protein) (Homo sapiens, UniProt P27986); test: Biospecific interaction analysis of binding to p85 SH2 domains; details: steady-state extrapolation, Scatchard-like analysis
# T1 construct: GST
# T1 sequence (P27986 333-428 limits assumed): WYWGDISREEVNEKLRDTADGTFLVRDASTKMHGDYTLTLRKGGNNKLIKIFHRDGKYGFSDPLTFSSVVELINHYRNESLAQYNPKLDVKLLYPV
# Method: Therefore, mT-pY315 binding to p85 SH2 domains was analyzed using biospecific interaction analysis as previously described to obtain a more accurate estimate for KD. Series of data were obtained during real-time binding experiments with different concentrations of SH2/GST fusion protein (data not shown).
# [2] = biological target: T2, association between pp60^c-grc /mT and PI 3-kinase (Mus musculus, UniProt P26450); test: Inhibition of in vitro association of cytosolic PI 3-kinase activity (Balb/3T3 lysate) with immunopurified pp60^c-grc /mT; type: biochemical; details: absence of sodium vanadate (active PTPases); peptide at about ID50
# T2 construct: endogenous in cells; host or cells: Balb/3T3 cells (PI 3-kinase); pp60c-src/mT from baculovirus-infected Sf9 cells
# T2 sequence (P26450 whole entry): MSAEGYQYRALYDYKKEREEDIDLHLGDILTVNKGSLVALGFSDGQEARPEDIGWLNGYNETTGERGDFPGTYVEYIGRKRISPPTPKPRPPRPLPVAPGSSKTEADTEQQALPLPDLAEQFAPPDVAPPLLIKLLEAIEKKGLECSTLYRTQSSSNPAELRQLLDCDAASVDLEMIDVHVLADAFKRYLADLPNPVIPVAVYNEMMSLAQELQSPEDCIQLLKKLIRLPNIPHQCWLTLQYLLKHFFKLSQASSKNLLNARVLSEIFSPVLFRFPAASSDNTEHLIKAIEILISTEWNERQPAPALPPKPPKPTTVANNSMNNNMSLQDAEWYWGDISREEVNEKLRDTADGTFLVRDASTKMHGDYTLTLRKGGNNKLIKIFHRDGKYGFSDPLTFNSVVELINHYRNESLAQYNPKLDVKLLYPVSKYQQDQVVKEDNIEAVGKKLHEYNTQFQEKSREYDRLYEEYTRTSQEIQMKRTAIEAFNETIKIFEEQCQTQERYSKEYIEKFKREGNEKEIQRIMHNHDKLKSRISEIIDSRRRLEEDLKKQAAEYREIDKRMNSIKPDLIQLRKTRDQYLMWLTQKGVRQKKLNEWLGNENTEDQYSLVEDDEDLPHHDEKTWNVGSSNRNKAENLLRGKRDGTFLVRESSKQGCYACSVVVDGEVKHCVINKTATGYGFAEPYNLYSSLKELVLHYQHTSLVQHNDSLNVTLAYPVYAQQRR
# Description: Inhibition of the in vitro Association of PI 3-Kinase Activity With Immunopurified pp60^c-grc /mT. Baculovirus-expressed pp60^c-grc /mT complex was immunopurified from infection Sf9 insect cell (Piwnica-Worms et al., 1990, J. Virol. 64:61-68) lysates as described (Auger et al., 1990, 1992, J. BioL Chem. 267:5408-5415). PI 3-kinase activity was obtained directly from crude Balb/3T3 cell lysates as follows. After washing confluent 10 cm dishes with phosphate-buffered saline, Balb/3T3 cells were treated with lysis buffer (137 mM NaCI, 20 mM Hepes, 1 mM MgCl2, 1 mM CaCl2, 10% glycerol, 1% Nonidet P-40, and 1 μg/ml each of leupeptin, pepstatin A and aprotinin, pH 7.25) in the presence or absence of 0.15 mM sodium vanadate. Following a 10 min incubation with lysis buffer, cells were scrape-harvested and particulate debris was removed from the lysates by centrifugation at 12,000×g for 5 min. at 4° C. Varying concentrations of peptides were added directly to the lysates and incubated at 4° C. for 30 min.
# Lysate-peptide mixtures were combined with protein A-Sepharose beads containing immunoprecipitated pp60^c-grc /mT complexes. After washing, the beads were used to catalyze phosphatidylinositol phosphorylation as described (Whitman et al., 1985, Nature 315:239-242; Auger et al., 1989, Cell 57:167-175, 1990, Methods in Inositide Res. pp. 159-166). […]
# SH2 domain of Src = SH2 domain of Src (Homo sapiens, UniProt P12931)
# SH2 domain of Src, sequence (P12931 151-248 limits assumed): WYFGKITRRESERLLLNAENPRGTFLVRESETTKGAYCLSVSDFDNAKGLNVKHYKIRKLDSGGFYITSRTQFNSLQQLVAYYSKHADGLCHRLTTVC
# Description: (§1) In these experiments, one or both hydrogen atoms were replaced on Pmp at the carbon position between the phenyl ring and the phosphonate.
# [3] = system: SH2 domains of P13-kinase P85; test: SH2 domain binding of GXVPML analog peptides (FIG. 2); details: peptide GXVPML, X varied
# Description: as §1
# [4] = system: association of PtdIns 3-kinase with mT/pp60^c-src complex; test: Peptide competition of PtdIns 3-kinase association with immunopurified mT/pp60^c-src; type: biochemical; details: peptide pre-incubated with whole cell lysates
# Method: (§2) In vitro association of phosphatidylinositol 3-kinase with immunopurified mT/pp60^c-src was assayed as follows. Washed mT/pp60^c-src immune complexes were incubated with purified PtdIns 3-kinase in 750 μl to 1 ml of standard lysis buffer (see above) at 4° C. on a platform rocker. The typical incubation was for 2-3 hours after which the complexes were collected by a brief centrifugation and washed twice with 1% […], twice with 0.5M LiCl in 0.1M Tris-HCl, and twice with TNE.
# (§3) Mammalian whole cell lysates were prepared from confluent 10 cm cell culture plates. The monolayer was washed once with 4° C. PBS and lysed in 1.0 ml of standard lysis buffer. After 10 minutes of incubation on a rocker platform at 4° C., the cells were scrape harvested and lysates cleared by centrifugation at 12,000×g for 5 minutes at 4° C. Lysates were used immediately for association experiments with the immunopurified mT/pp60^c-src complex.
# (§4) Phosphatidylinositol kinase assays and protein kinase assays were performed as follows. Phosphatidylinositol kinase assays were performed directly on the immune complex as described, Whitman et al., 1985, supra; Auger et al., 1989, supra. Sonicated phospholipids were added to the washed beads and the reaction was initiated with the addition of 50 μM ATP, 5-25 μCi [γ^32 P]ATP (3000/Ci/mmole), 5 mM MgCl2 in 20 mM HEPES (pH 7.5). Reactions were incubated for 5 minutes at room temperature. The 50 μl reactions were stopped by the addition of 80 μl of 1M HCl and 1 μl of 500 mM EDTA. The lipids were extracted with 160 μl of methanol:chloroform (1:1) and the organic layer was collected for analysis.
# (§5) The major site of tyrosine phosphorylation on mT by pp60^c-src is tyrosine 315. […]
# (§6) Proteins that were prevented from associating with the mT/pp60^c-src complex by the phosphorylated peptide were also determined. […]
# [5] = biological target: T3, association of PtdIns 3-kinase with mT/pp60^c-src complex (Rattus norvegicus, UniProt Q63787); test: as above; type: biochemical; details: Tran^35 S-labelled Rat-1 whole cell lysates, gel electrophoresis
# T3 construct: from tissue; host or cells: rat liver (PtdIns 3-kinase); mT/pp60c-src complex immunopurified from baculovirus-infected Sf9 cells
# T3 sequence (Q63787 whole entry, one chain of several): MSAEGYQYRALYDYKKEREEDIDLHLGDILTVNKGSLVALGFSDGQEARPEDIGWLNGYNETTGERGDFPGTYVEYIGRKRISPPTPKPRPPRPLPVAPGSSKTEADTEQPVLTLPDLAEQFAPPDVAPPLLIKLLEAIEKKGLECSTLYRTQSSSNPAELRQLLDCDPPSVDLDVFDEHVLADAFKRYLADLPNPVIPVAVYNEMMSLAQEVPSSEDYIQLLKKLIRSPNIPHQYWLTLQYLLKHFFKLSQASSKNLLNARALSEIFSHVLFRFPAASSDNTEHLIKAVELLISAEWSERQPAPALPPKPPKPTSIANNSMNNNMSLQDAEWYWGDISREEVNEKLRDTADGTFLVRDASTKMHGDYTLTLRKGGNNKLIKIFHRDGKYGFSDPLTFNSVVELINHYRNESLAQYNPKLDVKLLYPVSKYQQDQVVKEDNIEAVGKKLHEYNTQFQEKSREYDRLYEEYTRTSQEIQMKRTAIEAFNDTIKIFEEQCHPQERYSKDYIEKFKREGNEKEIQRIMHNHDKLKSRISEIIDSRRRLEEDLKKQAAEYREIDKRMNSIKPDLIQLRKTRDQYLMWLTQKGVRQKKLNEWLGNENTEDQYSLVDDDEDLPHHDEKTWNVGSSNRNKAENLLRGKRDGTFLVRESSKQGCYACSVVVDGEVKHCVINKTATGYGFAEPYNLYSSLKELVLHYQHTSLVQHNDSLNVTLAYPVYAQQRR
# Method: as §2, §3, §4, §5, §6
# [6] = biological target: T2, association between pp60^c-grc /mT and PI 3-kinase; details: presence of vanadate; Auger et al., 1992; cited from earlier work
# Rat PTPase 1B = biological target: T4, Rat PTPase 1B (Rattus norvegicus, UniProt P20417); test: PTPase 1B peptide dephosphorylation (Km) and inhibition (Ki); type: biochemical
# T4 construct: cloning the full-length cDNA into the bacterial expression vector, PKK233-2; made in house; host or cells: bacteria (vector PKK233-2)
# T4 sequence (P20417 1-432): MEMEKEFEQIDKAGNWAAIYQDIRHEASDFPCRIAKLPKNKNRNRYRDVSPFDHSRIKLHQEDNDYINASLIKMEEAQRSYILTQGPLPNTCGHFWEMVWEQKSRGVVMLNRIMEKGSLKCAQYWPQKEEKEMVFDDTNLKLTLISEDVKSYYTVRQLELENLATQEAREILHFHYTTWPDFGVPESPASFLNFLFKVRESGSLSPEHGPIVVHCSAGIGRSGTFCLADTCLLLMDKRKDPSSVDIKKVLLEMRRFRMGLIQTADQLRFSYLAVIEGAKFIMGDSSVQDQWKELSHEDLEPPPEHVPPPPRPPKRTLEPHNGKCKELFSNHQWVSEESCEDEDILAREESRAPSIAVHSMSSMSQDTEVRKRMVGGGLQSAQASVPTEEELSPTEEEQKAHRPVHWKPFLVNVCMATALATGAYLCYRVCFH
# Method: The phosphopeptides were used as substrates of PTPase 1B, a single catalytic domain PTPase with a […] tissue distribution (Hunter et al., 1989, cell 58:1013). Rat PTPase 1B (Guan et al., 1990, Proc. Natl., Acad. Sci. USA 87:1501) was obtained by PCR and cloning the full-length cDNA into the bacterial expression vector, PKK233-2.
# Sequence specificity for peptide dephosphorylation was observed, with apparent Km values ranging from <2 μM for the phospho-middle t sequence to >2 mM for pTyr itself (Table 3).
# Several phosphono peptides were tested for the ability to inhibit PTPase 1B activity and KI values determined by methods known to those skilled in the art.
# [7] = Amino acid side chain pK titration; type: physicochemical; details: 0.2M solution titrated with 6N HCl
molecule,measurement,setting,value
"CSCC[C@H](NC(=O)[C@@H]1CCCN1C(=O)[C@H](CCSC)NC(=O)[C@H](Cc1ccc(OP(=O)(O)O)cc1)NC(=O)[C@H](CCC(=O)O)NC(=O)[C@H](CCC(=O)O)NC(=O)[C@@H](N)CCC(=O)O)C(=O)N[C@@H](CCC(=O)O)C(=O)N[C@@H](CC(=O)O)C(=O)N[C@@H](CC(C)C)C(=O)N[C@@H](Cc1ccc(O)cc1)C(=O)O [mT-pY315, EEEpYMPMEDLY] (H-EEE[pY]MPMEDLY-OH)",estimated KD,[1],0.01 µM
same,inhibition of association between pp60^c-grc /mT and PI 3-kinase,[2],obliterated in the absence of vanadate
CC[C@H](C)[C@H](NC(=O)[C@H](CCC(=O)O)NC(=O)[C@H](CCC(=O)O)NC(=O)[C@H](Cc1ccc(OP(=O)(O)O)cc1)NC(=O)[C@H](CCC(N)=O)NC(C)=O)C(=O)N1CCC[C@H]1C(N)=O [QXEEIP (pTyr)] (Ac-Q[pY]EEIP-NH2),IC50,SH2 domain of Src,5.7 ± 0.7 µM
GXVPML (Pmp): peptide GXVPML (SEQ ID NO: 45) with X = Pmp (G[Pmp]VPML),ED50,[3],1.0 ± 0.1 µM
"RENEYMPMAPQIH [unphosphorylated peptide, unphosphorylated version of the hamster mT peptide]",effect on association of PtdIns 3-kinase with mT/pp60^c-src,[4]; listed as non-phosphorylated peptide,had no effect on the association
same,effect on association of PtdIns 3-kinase with mT/pp60^c-src,[4]; listed as unphosphorylated version of the peptide,did not affect the association
same,"effect on association of labelled proteins (110 kDa doublet, 85 kDa) with mT/pp60^c-src",[5],did not affect this association
same,activity on association between pp60^c-grc /mT and PI 3-kinase,[6],no detectable activity
"N[C@@H](Cc1ccc(OP(=O)(O)O)cc1)C(=O)O [phosphotyrosine, reference compound]",Km,Rat PTPase 1B; apparent Km as substrate,> 2000 µM
same,Km,"Rat PTPase 1B; apparent Km, phosphotyrosine and pY-peptides as substrates",> 2000 µM
same,side chain pK3,[7],5.7
